Data taken from patent publication US20240239788A1, “SMALL MOLECULE INHIBITORS OF KRAS G12D MUTANT” (Merck Sharp & Dohme LLC, priority 2021, published 2024).
Structures can show the parent of a compound that is named as a salt. Where two headings read alike, the source gives them in different places.

Experiments:
[1] = target: KRAS protein containing G12D mutation (Homo sapiens (Human), UniProt P01116, G12D); assay: SOS-catalyzed nucleotide exchange assay (GNE), TR-FRET; assay type: biochemical; conditions: biotinylated KRAS G12D, SOS and GTP, 60-minute incubation
Sequence of KRAS protein containing G12D mutation (P01116 other isoform, or with tags, fused parts or gaps G12D (already in the parent)): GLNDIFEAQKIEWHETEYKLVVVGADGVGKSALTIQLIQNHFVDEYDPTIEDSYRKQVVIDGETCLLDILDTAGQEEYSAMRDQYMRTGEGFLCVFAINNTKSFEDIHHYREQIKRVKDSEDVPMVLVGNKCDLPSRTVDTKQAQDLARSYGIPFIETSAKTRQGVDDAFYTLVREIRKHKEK
Procedure: Compounds are added to this complex and then after a 60-minute incubation time the mixture is treated with SOS and unlabeled GTP. Small molecule inhibitors stabilize the Bodipy-GDP complex whereas the untreated protein rapidly exchanges Bodipy-GDP for unlabeled GTP resulting in reduced TR-FRET signal.
This solution is referred to as biotinylated KRAS G12D stock solution.

[2] = system: AsPC-1 cells containing homozygous KRAS-G12D activating mutation; assay: Cellular phospho-ERK assay with 10% FBS (Examples 107a-256); assay type: cell-based
Procedure: 5% CO2 for 2 hours. […] Assay plates were read on a EnVision Multimode Plate Reader (PerkinElmer) and the ratio of p-Erk vs total Erk in each well was used as the final readout.

[3] = read-out: IC50 (nM) pERK (cell with FBS 10%), AsPC-1 cells, 10% fetal bovine serum, 2 hours, ratio of p-Erk vs total Erk
[4] = Homo sapiens, ASPC1, 2 h, read-out: IC50 (nM) pERK (cell with FBS 10%), AsPC-1 cells, 10% fetal bovine serum, 2 hours, ratio of p-Erk vs total Erk
[5] = read-out: IC50 (nM) pERK (cell with FBS 10%), AsPC-1 cells, 10% fetal bovine serum, 2 hours, ratio of p-Erk vs total Erk, TFA

Row | Compound | IC50 [1] [nM] | IC50 [2, 3] [nM] | IC50 [2, 4] [nM] | IC50 [2, 5] [nM]
1 | C#Cc1cccc2cc(O)c(F)c(-c3c(F)cc4c(N5CC6CC[C@@](C)(C5)N6)nc(OC[C@@]56CCCN5C[C@H](F)C6)nc4c3F)c12 (single isomer, unassigned) [Ex. 192a] | 1.17 | 114 |  | 
2 | C#Cc1cccc2cc(O)c(F)c(-c3c(F)cc4c(N5CC6CC[C@@](C)(C5)N6)nc(OC[C@@]56CCCN5C[C@H](F)C6)nc4c3F)c12 (single isomer, unassigned) [Ex. 192b] | 37 | 1570 |  | 
3 | Cc1cc(N)nc(-c2c(F)cc3c(N4CC5CC[C@@](C)(C4)N5)nc(OC[C@@]45CCCN4C[C@H](F)C5)nc3c2F)c1C(F)(F)F (single isomer, unassigned) [Ex. 200a] | 72.9 |  | 1220 | 
4 | CN(C)C[C@@]1(COc2nc(N3C[C@H]4CC[C@@H](C3)N4)c3cc(F)c(-c4c(C(F)(F)F)c(Cl)cc5cnn(C)c45)c(F)c3n2)CC1(F)F (single isomer, unassigned) [Ex. 201b] | 45.9 |  | 15600 | 
5 | C#Cc1cccc2nc(N)cc(-c3c(F)cc4c(N5CC6CCC(C5)N6)nc(OC[C@@]56CCCN5C[C@H](F)C6)nc4c3F)c12 (single isomer, unassigned) [Ex. 203a] | 380 | 3020 |  | 
6 | C#Cc1cccc2nc(N)cc(-c3c(F)cc4c(N5CC6CCC(C5)N6)nc(OC[C@@]56CCCN5C[C@H](F)C6)nc4c3F)c12 (single isomer, unassigned) [Ex. 203b] | 3.32 | 120 |  | 
7 | C#Cc1cccc2cc(O)c(C)c(-c3c(F)cc4c(N5CC6CC[C@@](C)(C5)N6)nc(OC[C@@]56CCCN5C[C@H](F)C6)nc4c3F)c12 (single isomer, unassigned) [Ex. 204a] | 1.13 | 64.2 |  | 
8 | C#Cc1cccc2cc(O)c(C)c(-c3c(F)cc4c(N5CC6CC[C@@](C)(C5)N6)nc(OC[C@@]56CCCN5C[C@H](F)C6)nc4c3F)c12 (single isomer, unassigned) [Ex. 204b] | 23.4 | 443 |  | 
9 | C[C@]12CCC(CN(c3nc(OCC4(CN5CC6CCC(C5)O6)CC4)nc4c(F)c(-c5cc(O)cc6cccc(Cl)c56)c(F)cc34)C1)N2 (single isomer, unassigned) [Ex. 208] | 210 |  | 30000 | 
10 | CC(O)(COc1nc(N2CC3CC[C@@](C)(C2)N3)c2cc(F)c(-c3cc(O)cc4cccc(Cl)c34)c(F)c2n1)CN1CC[C@@H](F)C1 (single isomer, unassigned) [Ex. 209] | 46.1 |  | 2910 | 
11 | C#Cc1cccc2cccc(-c3c(F)cc4c(N5CC6CC[C@@](C)(C5)N6)nc(OC[C@@]56CCCN5C[C@H](F)C6)nc4c3F)c12 (single isomer, unassigned) [Ex. 211b] | 7.41 |  | 2010 | 
12 | COCCNC[C@@]1(COc2nc(N3CC4CC[C@@](C)(C3)N4)c3cc(F)c(-c4c(C(F)(F)F)c(C)cc5[nH]ncc45)c(F)c3n2)CC1(F)F (single isomer, unassigned) [Ex. 213] | 4460 |  | 25600 | 
13 | COCC1CCN(C[C@@]2(COc3nc(N4CC5CC[C@@](C)(C4)N5)c4cc(F)c(-c5cc(O)cc6cccc(Cl)c56)c(F)c4n3)CC2(F)F)C1 (single isomer, unassigned) [Ex. 214a] | 4.95 | 3710 |  | 
14 | COCC1CCN(C[C@@]2(COc3nc(N4CC5CC[C@@](C)(C4)N5)c4cc(F)c(-c5cc(O)cc6cccc(Cl)c56)c(F)c4n3)CC2(F)F)C1 (single isomer, unassigned) [Ex. 214b] | 180 | 9070 |  | 
15 | CO[C@@H]1CCN(C[C@@]2(COc3nc(N4CC5CC[C@@](C)(C4)N5)c4cc(F)c(-c5cc(O)cc6cccc(Cl)c56)c(F)c4n3)CC2(F)F)C1 (single isomer, unassigned) [Ex. 215a] | 5.06 | 14000 |  | 
16 | CO[C@@H]1CCN(C[C@@]2(COc3nc(N4CC5CC[C@@](C)(C4)N5)c4cc(F)c(-c5cc(O)cc6cccc(Cl)c56)c(F)c4n3)CC2(F)F)C1 (single isomer, unassigned) [Ex. 215b] | 429 | 2370 |  | 
17 | C[C@]12CCC(CN(c3nc(OC[C@]4(CN[C@H]5C[C@@H](O)C5)CC4(F)F)nc4c(F)c(-c5cc(O)cc6cccc(Cl)c56)c(F)cc34)C1)N2 (single isomer, unassigned) [Ex. 216a] | 6.65 | 3090 |  | 

Row | Compound | IC50 [1] [nM] | IC50 [2, 3] [nM] | IC50 [2, 4] [nM] | IC50 [2, 5] [nM]
18 | C[C@]12CCC(CN(c3nc(OC[C@]4(CN[C@H]5C[C@@H](O)C5)CC4(F)F)nc4c(F)c(-c5cc(O)cc6cccc(Cl)c56)c(F)cc34)C1)N2 (single isomer, unassigned) [Ex. 216b] | 804 | 7120 |  | 
19 | C[C@]12CCC(CN(c3nc(OC[C@]4(CN[C@@H]5CC[C@H](O)C5)CC4(F)F)nc4c(F)c(-c5cc(O)cc6cccc(Cl)c56)c(F)cc34)C1)N2 (single isomer, unassigned) [Ex. 219a] | 3.27 | 1250 |  | 
20 | C[C@]12CCC(CN(c3nc(OC[C@]4(CN[C@@H]5CC[C@H](O)C5)CC4(F)F)nc4c(F)c(-c5cc(O)cc6cccc(Cl)c56)c(F)cc34)C1)N2 (single isomer, unassigned) [Ex. 219b] | 627 | 9380 |  | 
21 | CN(C[C@@]1(COc2nc(N3CC4CC[C@@](C)(C3)N4)c3cc(F)c(-c4cc(O)cc5cccc(Cl)c45)c(F)c3n2)CC1(F)F)C1COC1 (single isomer, unassigned) [Ex. 220] | 470 |  | 7830 | 
22 | COCCOCC1CCN(C[C@@]2(COc3nc(N4CC5CC[C@@](C)(C4)N5)c4cc(F)c(-c5c(C(F)(F)F)c(C)cc6[nH]ncc56)c(F)c4n3)CC2(F)F)C1 (single isomer, unassigned) [Ex. 222] | 8.84 |  | 2880 | 
23 | Cc1cc2[nH]nc(C#N)c2c(-c2c(F)cc3c(N4C[C@H]5CC[C@@H](C4)N5)nc(OC[C@@]45CCCN4C[C@H](F)C5)nc3c2F)c1C(F)(F)F (single isomer, unassigned) [Ex. 227a] | 190 | 1520 |  | 
24 | C[C@]12CCC(CN(c3nc(OC[C@@]45CCCN4C[C@H](F)C5)nc4c(F)c(-c5cc(O)cn6ncc(Cl)c56)c(F)cc34)C1)N2 (single isomer, unassigned) [Ex. 230a, TFA] | 30.9 |  |  | 1450
25 | C[C@]12CCC(CN(c3nc(OC[C@@]45CCCN4C[C@H](F)C5)nc4c(F)c(-c5cc(O)cn6ncc(Cl)c56)c(F)cc34)C1)N2 (single isomer, unassigned) [Ex. 230b, TFA] | 162 |  |  | 9100
26 | Nc1cc(-c2c(F)cc3c(N4CC5CCC(C4)N5)nc(OC[C@@]45CCCN4C[C@H](F)C5)nc3c2F)c2c(Cl)cccc2n1 (single isomer, unassigned) [Ex. 231a] | 1490 | 9300 |  | 
27 | Nc1cc(-c2c(F)cc3c(N4CC5CCC(C4)N5)nc(OC[C@@]45CCCN4C[C@H](F)C5)nc3c2F)c2c(Cl)cccc2n1 (single isomer, unassigned) [Ex. 231b] | 38.4 | 326 |  | 
28 | Cc1cc2[nH]nc(C)c2c(-c2c(F)cc3c(N4CC5CCC(C4)N5)nc(OC[C@@]45CCCN4C[C@H](F)C5)nc3c2F)c1OC(F)(F)F (single isomer, unassigned) [Ex. 232a] | 932 | 30000 |  | 
29 | Cc1cc2[nH]nc(C)c2c(-c2c(F)cc3c(N4CC5CCC(C4)N5)nc(OC[C@@]45CCCN4C[C@H](F)C5)nc3c2F)c1OC(F)(F)F (single isomer, unassigned) [Ex. 232b] | 5.9 | 155 |  | 
30 | Oc1cc(Cl)c(C(F)(F)F)cc1-c1c(F)cc2c(N3CC4CCC(C3)N4)nc(OC[C@@]34CCCN3C[C@H](F)C4)nc2c1F (single isomer, unassigned) [Ex. 256] | 246 |  | 5870 | 
31 | C[C@]12CC[C@H](CN(c3nc(OCC45CCCN4CCC(F)(F)C5)nc4c(F)c(-c5cc(O)cc6cccc(Cl)c56)c(F)cc34)C1)N2 (single isomer, unassigned) [Example 116b] | 473 |  | 14000 | 
32 | Cc1cc2[nH]ncc2c(-c2c(F)cc3c(N4CC5CCC(C4)N5)nc(OC[C@@]45CCCN4C[C@H](F)C5)nc3c2F)c1OC(F)(F)Cl (single isomer, unassigned) [compound 253] | 1.74 |  | 111 | 
33 | C[C@]12CCC(CN(c3nc(OCC45CCCN4CC(F)C5)nc4c(F)c(-c5nc(N)cc6cccc(Cl)c56)c(F)cc34)C1)N2 (stereo in doubt) [Ex. 131, 8-chloro-1-(6,8-difluoro-2-(((2S,7aR)-2-fluorotetrahydro-1H-pyrrolizin-7a(5H)-yl)methoxy)-4-((1S,5R)-1-methyl-3,8-diaza-bicyclo[3.2.1]octan-3-yl)quinazolin-7-yl) isoquinolin-3-amine] | 188 |  | 6980 | 
34 | CN(C)C[C@@]1(COc2nc(N3C[C@H]4CC[C@@](C)(C3)N4)c3cc(C#N)c(-c4cc(O)cc5ccccc45)c(F)c3n2)CC1(F)F [136b, 2-(((R)-1-((dimethylamino)methyl)-2,2-difluorocyclopropyl)methoxy)-8-fluoro-7-(3-hydroxynaphthalen-1-yl)-4-((1S,5R)-1-methyl-3,8-diazabicyclo[3.2.]octan-3-yl)quinazoline-6-carbonitrile] | 32.4 | 2380 |  | 
